{"source": "ChEMBL document CHEMBL1144381", "about": "“Synthesis and antimycobacterial activity of ferrocenyl ethambutol analogues and ferrocenyl diamines” (2005)"}
{"tested_on": "Mycobacterium tuberculosis", "test": "In vitro minimum inhibitory concentration measured against Mycobacterium tuberculosis H37Rv strain", "assay_type": "functional", "units": {"MIC": "µg/mL"}}
{"molecule": "c1ccc(CNCCNCc2ccccc2)cc1", "MIC": "> 64"}
{"molecule": "(1S)-2-({[4-({[(5R)-5-hydroxycyclopenta-1,3-dien-1-yl]methyl}amino)butyl]amino}methyl)cyclopenta-2,4-dien-1-ol bis(cyclopenta-1,3-diene) diiron", "MIC": "> 64"}
{"molecule": "(1S)-2-({[6-({[(5R)-5-hydroxycyclopenta-1,3-dien-1-yl]methyl}amino)hexyl]amino}methyl)cyclopenta-2,4-dien-1-ol bis(cyclopenta-1,3-diene) diiron", "MIC": "> 64"}
{"molecule": "(cyclopenta-1,3-dien-1-ylmethyl)(hexyl)amine (cyclopenta-1,3-dien-1-ylmethyl)(methyl)amine bis(cyclopenta-1,3-diene) diiron", "MIC": 32}
{"molecule": "(cyclopenta-1,3-dien-1-ylmethyl)({2-[(cyclopenta-1,3-dien-1-ylmethyl)amino]ethyl})amine bis(cyclopenta-1,3-diene) diiron", "MIC": 8}
{"molecule": "(cyclopenta-1,3-dien-1-ylmethyl)({3-[(cyclopenta-1,3-dien-1-ylmethyl)amino]propyl})amine bis(cyclopenta-1,3-diene) diiron", "MIC": 8}
{"molecule": "(cyclopenta-1,3-dien-1-ylmethyl)({4-[(cyclopenta-1,3-dien-1-ylmethyl)amino]butyl})amine bis(cyclopenta-1,3-diene) diiron", "MIC": 32}
